Results from US11814392B2, “Chromenopyridine-based compounds and methods of making and use thereof” (Rosalind Franklin University of Medicine and Science, priority 2020, dated 2023).

Molecular target: T1, PMCT (Homo sapiens, UniProt Q86YT5)
T1 construct: expressed in transfected cells; host or cells: HEK293T cells transfected with pcDNA3.1(+)-SLC13A5 using PEI
Test: PMCT inhibition, citrate transport assay of whole HEK293T cells
Type: cell-based
Details: for dose-dependence of PMCT inhibition / PMCT Inhibition: HEK293T cells; for dose-dependence of PMCT inhibition: even at moderate concentrations (FIG. 1); for inhibition at 2.8 µM / inhibition at 28 µM / inhibition at 140 µM / inhibition at 280 µM: HEK-293T; for inhibition at 2.8 µM: read-out: PMCT Inhibition, Inhibitor Concentration 2.8 μM, HEK293T cells; for inhibition at 28 µM: read-out: PMCT Inhibition, Inhibitor Concentration 28 μM, HEK293T cells; for inhibition at 140 µM: read-out: PMCT Inhibition, Inhibitor Concentration 140 μM, HEK293T cells; for inhibition at 280 µM: read-out: PMCT Inhibition, Inhibitor Concentration 280 μM, HEK293T cells; for PMCT Inhibition: Inhibitor Concentration 280 μM, 280 µM

T1 sequence (Q86YT5 whole entry): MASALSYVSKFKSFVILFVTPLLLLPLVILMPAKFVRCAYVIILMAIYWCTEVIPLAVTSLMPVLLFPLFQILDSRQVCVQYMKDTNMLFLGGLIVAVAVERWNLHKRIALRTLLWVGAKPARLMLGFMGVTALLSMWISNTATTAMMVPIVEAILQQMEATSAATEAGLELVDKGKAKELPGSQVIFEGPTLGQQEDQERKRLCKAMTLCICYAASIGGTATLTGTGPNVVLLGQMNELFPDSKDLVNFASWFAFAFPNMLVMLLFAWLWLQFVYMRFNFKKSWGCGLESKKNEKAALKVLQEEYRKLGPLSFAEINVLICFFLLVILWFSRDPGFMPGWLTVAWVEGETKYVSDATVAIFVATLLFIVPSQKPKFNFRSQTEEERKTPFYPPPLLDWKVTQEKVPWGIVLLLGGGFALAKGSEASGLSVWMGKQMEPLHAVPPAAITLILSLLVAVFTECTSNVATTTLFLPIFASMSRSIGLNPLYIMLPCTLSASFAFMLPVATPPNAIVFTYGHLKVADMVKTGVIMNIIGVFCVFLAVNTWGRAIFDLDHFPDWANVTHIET

Compound | dose-dependence of PMCT inhibition | inhibition at 2.8 µM [%] | inhibition at 28 µM [%] | inhibition at 140 µM [%] | inhibition at 280 µM [%] | PMCT Inhibition [%]
COc1cc2c(cc1OC)C(Sc1ccc(SC)cc1)c1c(nc(N)c(C#N)c1N)O2 (stereo not shown) [Compound 6, 2,4-diamino-7,8-dimethoxy-5-((4-(methylthio)phenyl)thio)-5H-chromeno[2,3-b]pyridine-3-carbonitrile] | dose-dependent inhibition | 9.4 | -45.9 | 46.8 | 70.2 | 87.4
COc1ccc2c(c1)Oc1nc(N)c(C#N)c(N)c1C2Sc1ccc(O)cc1 (stereo not shown) [Compound 7, 2,4-Diamino-5-((4-hydroxyphenyl)thio)-8-methoxy-5H-chromeno[2,3-b]pyridine-3-carbonitrile] | dose-dependent inhibition | 28 | -13.3 | 42.5 | 62.9 | 77.7
COc1ccc(SC2c3c(OC)cc(OC)cc3Oc3nc(N)c(C#N)c(N)c32)cc1 (stereo not shown) [Compound 2, 2,4-diamino-6,8-dimethoxy-5-((4-methoxyphenyl)thio)-5H-chromeno[2,3-b]pyridine-3-carbonitrile] | dose-dependent inhibition | 34.7 | 24 | 48.5 | 50 | 
CSc1ccc(SC2c3ccc(C)cc3Oc3nc(N)c(C#N)c(N)c32)cc1 (stereo not shown) [Compound 9, 2,4-Diamino-8-methyl-5-((4-(methylthio)phenyl)thio)-5H-chromeno[2,3-b]pyridine-3-carbonitrile] |  | 35.7 | 1.8 |  | 35.7 | 
COc1ccc(SC2c3ccc(O)cc3Oc3nc(N)c(C#N)c(N)c32)cc1 (stereo not shown) [Compound 5, 2,4-Diamino-8-hydroxy-5-((4-methoxyphenyl)thio)-5H-chromeno[2,3-b]pyridine-3-carbonitrile] |  | -12.8 | -4.5 |  | -3.2 | 
CCN(CC)c1ccc2c(c1)Oc1nc(N)c(C#N)c(N)c1C2Sc1ccc(SC)cc1 (stereo not shown) [Compound 8, 2,4-diamino-8-(diethylamino)-5-((4-(methylthio)phenyl)thio)-5H-chromeno[2,3-b]pyridine-3-carbonitrile] |  | -41.5 | -1.5 |  | 58.4 | 
CSc1ccc(SC2c3ccc(O)cc3Oc3nc(N)c(C#N)c(N)c32)cc1 (stereo not shown) [Compound 3, 2,4-Diamino-8-hydroxy-5-((4-(methylthio)phenyl)thio)-5H-chromeno[2,3-b]pyridine-3-carbonitrile] | dose-dependent inhibition | 6.2 | 9.9 | 28.6 | 58.7 | 
CCN(CC)c1ccc2c(c1)Oc1nc(N)c(C#N)c(N)c1C2Sc1ccc(OC)cc1 (stereo not shown) [Compound 4, 2,4-diamino-8-(diethylamino)-5-((4-methoxyphenyl)thio)-5H-chromeno[2,3-b]pyridine-3-carbonitrile] |  | -23.2 | 28.6 |  | -8.7 | 
